# Target: T1, WecA (Escherichia coli, UniProt P0AC78)
# T1 sequence (P0AC78 1-367): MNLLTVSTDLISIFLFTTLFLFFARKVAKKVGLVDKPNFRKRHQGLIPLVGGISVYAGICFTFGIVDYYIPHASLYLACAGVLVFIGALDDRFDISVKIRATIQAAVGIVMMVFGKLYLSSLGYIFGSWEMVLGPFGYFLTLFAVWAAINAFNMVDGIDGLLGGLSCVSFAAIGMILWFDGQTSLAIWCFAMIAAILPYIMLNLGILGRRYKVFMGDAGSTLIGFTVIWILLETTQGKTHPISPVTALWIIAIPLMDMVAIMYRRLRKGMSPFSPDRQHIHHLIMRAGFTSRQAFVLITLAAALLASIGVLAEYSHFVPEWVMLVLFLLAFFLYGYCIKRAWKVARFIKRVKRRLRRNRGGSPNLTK
# Assay: HPLC transferase assay with cell envelope fraction
# Format: biochemical
# Conditions: 2CN- or NBD-B(4Z)P; overexpressed recombinant WecA; bicine pH 8.5, MgCl2, cholate, 37 °C
smiles,measurement,value
CC(=O)N[C@H]1[C@@H](OP(=O)(O)OP(=O)(O)OC[C@H]2O[C@@H](n3ccc(=O)[nH]c3=O)[C@H](O)[C@@H]2O)O[C@H](CO)[C@@H](O)[C@@H]1O [UDP-GlcNAc],HPLC transferase assay with cell envelope fraction,able to convert fl-BPs with far lower concentrations of UDP-GlcNAc

# — article PMC7132332 (Biochemistry, 2020)
